# Experimental data published in ChEMBL document CHEMBL1137626, “Identifying common metalloprotease inhibitors by protein fold types using Fourier transform mass spectrometry” (Bioorg Med Chem Lett, 2007).
# pIC50, pKi: −log10 of the molar value.
# Experiment: Inhibition of thermolysin by enzcheck protease assay
pIC50,pKi,Compound
4.74,5.31,CCCCC[C@H](CC(=O)NO)C(=O)N[C@H](C(=O)N1CCC[C@H]1CO)C(C)C [ACTINONIN]
4.86,5.16,CC(C)C[C@H](NP(=O)(O)O[C@@H]1O[C@@H](C)[C@H](O)[C@@H](O)[C@H]1O)C(=O)N[C@@H](Cc1c[nH]c2ccccc12)C(=O)O [PHOSPHORAMIDON]
